Reference: paper PMC2714806 (2009)
Values joined by “and” are separate entries in the source; they are usually repeats but may differ in a detail not shown here. Equal entries are not always repeated. “Also recorded” adds a separate entry of the source. Ends that are not written are not given here.

Tests used:
[1] = system: NMDA receptor; settings: cited from earlier work
[2] = system: NR1a/NR2A-, NR1a/NR2B-, NR1b/NR2A-, and NR1b/NR2B-containing receptors; settings: cited from earlier work
[3] = assay type: physicochemical; settings: pH 6.5
[4] = assay type: physicochemical; settings: pH 6.5; remark: listed apart in the source
[5] = assay type: binding; settings: pH 6.5
[6] = assay type: binding; settings: pH 6.5; remark: listed apart in the source
[7] = system: NR1b/2A NMDA receptor; assay type: cell-based; settings: pH 7.35
[8] = system: NR1b/2B NMDA receptor; assay type: cell-based; settings: pH 7.35
[9] = system: NR1b/2A and NR1b/2B NMDA receptors; assay type: cell-based; settings: 40 µM

For GEγγYQγMLγNLRγAEVKKNA-NH2 [con-T[K7γ]], the “inhibition of ion flow through NMDA receptor complexes” value [1] is given as “potent and specific inhibitors”.
For “con-T: naturally-occurring conantokin derived from Conus tulipa (GEEEYQKMLENLREAEVKKNA; ends and bridges not checked; UniProt P17684 1-21, looked up)”, the “antagonism of NMDA receptor activity” value ([2]; 40 µM) is given as “completely antagonizes NMDA receptor activity at all subunit combinations” and the “inhibition of current flow through the NMDA receptor” value [1] is given as “potent and selective inhibitor of current flow through the NMDA receptor”.
In the case of “con-T[M8N]: Met8-substituted con-T peptide (GEEEYQKNLENLREAEVKKNA; ends and bridges not checked; UniProt P17684 1-21, looked up, variant M8N)”, the NR2A-/NR2B-selectivity [2] is given as “non-selective”.
For con-T[γ4E,K7γ,V17γ] [con-T-tri], the “helicity (in words)” value [3] was “marginal helicity; also recorded: high percentage of helix content; also recorded: negligible helicity; also recorded: highly helical character”, the “MWapp (apparent molecular weight)” value [4] was 3320 ± 300 and 6490 ± 450 and 3460 ± 190 and the self-association [4] was “did not result in marked self-association”. For the same substance, the Kd [5] was 26 µM, the “n (stoichiometry of metal ion binding)” value [6] was 1.0 and the “effect on NMDA-evoked current” value [7] was “current potentiation; also recorded: Potentiation of currents”. The “effect on NMDA-evoked current” value [8] was “modest inhibitory activity” and the NR2A-/NR2B-selectivity [9] was “NR2B selective”.
